Experimental data taken from ChEMBL document CHEMBL3286373, “Toward the Development of Bivalent Ligand Probes of Cannabinoid CB1 and Orexin OX1 Receptor Heterodimers” (ACS Med Chem Lett, 2014).

Tests used:
[1] = molecular target: T1, Cannabinoid CB1 receptor/orexin receptor 1 complex (Homo sapiens) (UniProt P21554+O43613); conditions: RD-HGA16
Description: Antagonist activity at CB1-OX1 heterodimer (unknown origin) expressed in RD-HGA16 cells assessed as inhibition of CP55940-induced calcium mobilization by fluorometric imaging plate reader analysis

[2] = molecular target: T2, Orexin/Hypocretin receptor type 1 (Homo sapiens) (UniProt O43613); assay: Antagonist activity at OX1 receptor (unknown origin) expressed in RD-HGA16 cells assessed as inhibition of orexin A-induced calcium mobilization by fluorometric imaging plate reader analysis; format: functional, cell-based
T2 sequence (whole entry): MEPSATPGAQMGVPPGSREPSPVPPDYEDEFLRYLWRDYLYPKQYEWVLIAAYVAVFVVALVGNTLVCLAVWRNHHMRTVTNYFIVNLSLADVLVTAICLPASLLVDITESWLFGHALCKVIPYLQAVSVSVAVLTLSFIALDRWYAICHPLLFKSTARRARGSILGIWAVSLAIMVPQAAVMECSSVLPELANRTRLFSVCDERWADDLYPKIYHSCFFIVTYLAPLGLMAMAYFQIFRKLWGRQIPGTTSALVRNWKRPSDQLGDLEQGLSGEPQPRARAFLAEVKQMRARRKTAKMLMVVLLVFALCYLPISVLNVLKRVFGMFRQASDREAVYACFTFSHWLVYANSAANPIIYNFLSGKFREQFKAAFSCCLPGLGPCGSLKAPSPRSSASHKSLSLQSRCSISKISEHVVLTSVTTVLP

[3] = molecular target: T1, Cannabinoid CB1 receptor/orexin receptor 1 complex (Homo sapiens); conditions: RD-HGA16; remark: listed apart in the source
Description: Antagonist activity at CB1-OX1 heterodimer (unknown origin) expressed in RD-HGA16 cells assessed as inhibition of orexin A-induced calcium mobilization by fluorometric imaging plate reader analysis

[4] = molecular target: Cannabinoid receptor 1 (Homo sapiens) (UniProt P21554); conditions: RD-HGA16
Chain of Cannabinoid receptor 1 (Homo sapiens) (P21554 whole entry): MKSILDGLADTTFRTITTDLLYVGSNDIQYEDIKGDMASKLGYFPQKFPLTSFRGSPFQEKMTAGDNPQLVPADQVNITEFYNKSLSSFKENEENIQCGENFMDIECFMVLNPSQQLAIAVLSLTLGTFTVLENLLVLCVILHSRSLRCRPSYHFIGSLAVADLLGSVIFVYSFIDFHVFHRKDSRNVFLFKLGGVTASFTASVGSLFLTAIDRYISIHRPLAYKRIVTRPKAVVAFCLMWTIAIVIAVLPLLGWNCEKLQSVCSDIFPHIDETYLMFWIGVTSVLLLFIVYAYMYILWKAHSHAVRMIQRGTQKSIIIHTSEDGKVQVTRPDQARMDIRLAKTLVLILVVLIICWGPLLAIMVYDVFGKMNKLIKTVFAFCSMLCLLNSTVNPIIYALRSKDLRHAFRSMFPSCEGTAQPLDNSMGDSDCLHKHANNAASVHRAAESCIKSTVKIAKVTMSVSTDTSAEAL
Description: Antagonist activity at CB1 receptor (unknown origin) expressed in RD-HGA16 cells assessed as inhibition of CP55940-induced calcium mobilization by fluorometric imaging plate reader analysis

COc1cc2c(cc1OC)C(Cc1ccc(OC(=O)CCCCCCN(C)CCCCCCCNC(=O)c3nn(-c4ccc(Cl)cc4Cl)c(-c4ccc(Cl)cc4)c3C)c(OC)c1)N(CC(=O)NCc1ccccc1)CC2 (centres undefined)
Ke [1]: > 10 µM
Ke [2]: 8460 nM
Ke [3]: 610 nM
Ke [4]: 1800 nM

Cc1nc2ccc(NC(=O)Nc3ccnc4cccnc34)cc2o1
Ke [1]: 0.032 µM
Ke [2]: 45 nM
Ke [3]: > 10000 nM
Ke [4]: > 10000 nM

CCCCCCOc1cc2c(cc1OC)CCN(CC(=O)NCc1ccccc1)C2Cc1ccc(OC)c(OC)c1 (centres undefined)
Ke [2]: 310 nM

COc1ccc(CC2c3cc(OC)c(OC)cc3CCN2CC(=O)NCc2ccccc2)cc1OC (centres undefined)
Ke [2]: 200 nM

COc1cc2c(cc1OC)C(Cc1ccc(OC(=O)CCCCCCN(C)CCCCCCCCCCNC(=O)c3nn(-c4ccc(Cl)cc4Cl)c(-c4ccc(Cl)cc4)c3C)c(OC)c1)N(CC(=O)NCc1ccccc1)CC2 (centres undefined)
Ke [1]: 5.9 µM
Ke [2]: > 10000 nM
Ke [3]: 110 nM
Ke [4]: 1800 nM

COc1ccc(CC2c3cc(OC(=O)CCCCCCN(C)CCCCOCCCCOCCCCOCCNC(=O)c4nn(-c5ccc(Cl)cc5Cl)c(-c5ccc(Cl)cc5)c4C)c(OC)cc3CCN2CC(=O)NCc2ccccc2)cc1OC (centres undefined)
Ke [1]: 4.5 µM
Ke [2]: 3500 nM
Ke [3]: 420 nM
Ke [4]: 1800 nM

CCCC(=O)Oc1cc2c(cc1OC)CCN(CC(=O)NCc1ccccc1)C2Cc1ccc(OC)c(OC)c1 (centres undefined)
Ke [2]: 78 nM

CCCCCCCNC(=O)[C@@H](c1ccccc1)N1CCc2cc(OC)c(OC)cc2C1Cc1ccc(OC)c(OC)c1 (some centres undefined)
Ke [2]: 22 nM

CCCC(=O)Oc1ccc(CC2c3cc(OC)c(OC)cc3CCN2CC(=O)NCc2ccccc2)cc1OC (centres undefined)
Ke [2]: 43 nM

CCCCCCCNC(=O)CN1CCc2cc(OC)c(OC)cc2C1Cc1ccc(OC)c(OC)c1 (centres undefined)
Ke [2]: 590 nM

COc1ccc(CC2c3cc(OC(=O)CCCCCCN(C)CCCCCCCNC(=O)c4nn(-c5ccc(Cl)cc5Cl)c(-c5ccc(Cl)cc5)c4C)c(OC)cc3CCN2CC(=O)NCc2ccccc2)cc1OC (centres undefined)
Ke [1]: > 10 µM
Ke [2]: 8800 nM
Ke [3]: 1200 nM
Ke [4]: 2100 nM

CCCCCCOc1ccc(CC2c3cc(OC)c(OC)cc3CCN2CC(=O)NCc2ccccc2)cc1OC (centres undefined)
Ke [2]: 120 nM

COc1cc2c(cc1OC)C(Cc1ccc(OC(=O)CCCCCCN(C)CCCCCCCCCCCCNC(=O)c3nn(-c4ccc(Cl)cc4Cl)c(-c4ccc(Cl)cc4)c3C)c(OC)c1)N(CC(=O)NCc1ccccc1)CC2 (centres undefined)
Ke [1]: > 10 µM
Ke [2]: > 10000 nM
Ke [3]: 410 nM
Ke [4]: 1100 nM

COc1ccc(CC2c3cc(OCCCCCCC(=O)NCCOCCOCCOCCNC(=O)c4nn(-c5ccc(Cl)cc5Cl)c(-c5ccc(Cl)cc5)c4C)c(OC)cc3CCN2CC(=O)NCc2ccccc2)cc1OC (centres undefined)
Ke [1]: > 10 µM
Ke [2]: 8600 nM
Ke [3]: 580 nM
Ke [4]: 8000 nM

COc1ccc(CC2c3cc(OC)c(OC)cc3CCN2C(C(=O)NCCCCCCCN(C)CCCCCCCNC(=O)c2nn(-c3ccc(Cl)cc3Cl)c(-c3ccc(Cl)cc3)c2C)c2ccccc2)cc1OC (centres undefined)
Ke [1]: > 10 µM
Ke [2]: 5500 nM
Ke [3]: 230 nM
Ke [4]: 3000 nM
